From patent publication US20030166932A1 (priority 2002, published 2003)

How the values were obtained:
RARβ = molecular target: T1, RARβ (Homo sapiens, UniProt P10826); assay: ligand binding assay; conditions: read-out: RAR Bind. Ki (nM) β
T1 sequence (P10826 1-455): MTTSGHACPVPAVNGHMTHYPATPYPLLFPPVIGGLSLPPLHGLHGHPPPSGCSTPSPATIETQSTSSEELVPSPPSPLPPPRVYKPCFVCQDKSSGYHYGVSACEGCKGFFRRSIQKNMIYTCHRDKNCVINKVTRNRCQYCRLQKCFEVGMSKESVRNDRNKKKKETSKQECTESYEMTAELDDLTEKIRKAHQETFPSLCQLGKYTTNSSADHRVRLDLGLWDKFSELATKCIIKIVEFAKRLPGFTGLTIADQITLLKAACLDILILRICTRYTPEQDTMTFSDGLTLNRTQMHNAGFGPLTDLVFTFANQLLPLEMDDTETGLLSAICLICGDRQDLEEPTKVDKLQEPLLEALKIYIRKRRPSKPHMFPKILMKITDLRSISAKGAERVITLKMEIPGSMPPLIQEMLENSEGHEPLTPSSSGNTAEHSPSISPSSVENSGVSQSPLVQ
From the text: (§1) The results obtained in this assay are expressed in EC50 numbers, as they are also in the chimeric receptor transactivation assay. The results of ligand binding assay are expressed in Kd numbers.
(§2) Particularly, the transactivation data pertaining to RAR receptors were obtained in the chimeric assay, and the data pertaining to transactivation of RXR receptors were obtained in the holoreceptor transactivation assay.

RXRγ = molecular target: T2, RXRγ (UniProt P28705); assay: holoreceptor transactivation assay; type: cell-based; conditions: for EC50: NA = Not Active, read-out: RXR Trans. EC50 (nM) Y; for % efficacy, RXR Trans. Y: relative to 10^−6 M AGN 194204
T2 sequence (P28705 1-463): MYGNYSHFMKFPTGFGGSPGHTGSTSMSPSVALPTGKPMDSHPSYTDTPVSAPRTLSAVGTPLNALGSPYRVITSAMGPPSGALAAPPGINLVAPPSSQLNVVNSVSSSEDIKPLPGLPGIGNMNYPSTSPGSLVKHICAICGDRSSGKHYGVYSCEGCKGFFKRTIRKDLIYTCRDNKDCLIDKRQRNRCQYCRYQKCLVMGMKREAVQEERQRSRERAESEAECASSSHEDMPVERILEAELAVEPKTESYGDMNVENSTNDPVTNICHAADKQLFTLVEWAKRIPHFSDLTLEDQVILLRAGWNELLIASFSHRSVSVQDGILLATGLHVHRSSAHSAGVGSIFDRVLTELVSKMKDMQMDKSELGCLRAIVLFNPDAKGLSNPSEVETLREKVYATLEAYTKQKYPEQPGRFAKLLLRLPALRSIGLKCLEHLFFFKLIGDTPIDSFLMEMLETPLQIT
From the text: as §1, §2

RXRα [1] = molecular target: T3, RXRα (Homo sapiens, UniProt P19793); assay: holoreceptor transactivation assay; conditions: for Emax: read-out: % efficacy, RXR Trans. α
T3 sequence (P19793 1-462): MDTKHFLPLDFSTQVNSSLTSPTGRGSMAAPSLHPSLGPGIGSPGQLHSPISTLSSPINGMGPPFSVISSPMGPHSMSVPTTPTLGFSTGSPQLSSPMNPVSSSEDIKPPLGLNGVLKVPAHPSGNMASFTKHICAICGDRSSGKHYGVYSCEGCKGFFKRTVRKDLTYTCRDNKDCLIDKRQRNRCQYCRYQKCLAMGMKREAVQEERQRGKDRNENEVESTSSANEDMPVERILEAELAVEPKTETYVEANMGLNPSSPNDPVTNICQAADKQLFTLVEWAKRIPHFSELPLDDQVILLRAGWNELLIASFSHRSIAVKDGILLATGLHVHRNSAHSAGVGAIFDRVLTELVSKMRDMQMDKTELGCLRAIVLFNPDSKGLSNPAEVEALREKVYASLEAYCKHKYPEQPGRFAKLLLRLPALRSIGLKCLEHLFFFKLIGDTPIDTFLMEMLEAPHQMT
From the text: as §1, §2

RXRβ [2] = molecular target: T4, RXRβ (UniProt P28704); assay: ligand binding assay; conditions: read-out: RXR Bind Ki (nM) β
T4 sequence (P28704 1-520): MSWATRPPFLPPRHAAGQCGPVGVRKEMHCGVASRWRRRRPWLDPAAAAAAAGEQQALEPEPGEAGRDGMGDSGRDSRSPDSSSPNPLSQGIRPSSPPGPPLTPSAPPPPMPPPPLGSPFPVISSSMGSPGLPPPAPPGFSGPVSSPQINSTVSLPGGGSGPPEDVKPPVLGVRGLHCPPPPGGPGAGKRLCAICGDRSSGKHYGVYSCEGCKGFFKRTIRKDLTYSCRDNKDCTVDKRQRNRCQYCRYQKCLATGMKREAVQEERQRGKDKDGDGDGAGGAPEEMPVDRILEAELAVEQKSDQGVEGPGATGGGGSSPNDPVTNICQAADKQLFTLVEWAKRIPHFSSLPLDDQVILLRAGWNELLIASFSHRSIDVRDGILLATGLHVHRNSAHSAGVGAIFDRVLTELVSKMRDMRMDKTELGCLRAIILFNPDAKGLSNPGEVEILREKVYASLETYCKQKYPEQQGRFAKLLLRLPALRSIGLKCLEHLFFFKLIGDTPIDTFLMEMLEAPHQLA
From the text: as §1, §2

RXRβ [3] = molecular target: T4, RXRβ; assay: holoreceptor transactivation assay; type: cell-based; conditions: for EC50: NA = Not Active, read-out: RXR Trans. EC50 (nM) β; for % efficacy, RXR Trans. β: relative to 10^−6 M AGN 194204
From the text: as §1, §2

RXRα [4] = molecular target: T3, RXRα; assay: ligand binding assay
From the text: as §1, §2

RARγ = molecular target: T5, RARγ (Homo sapiens, UniProt P13631); assay: ligand binding assay; conditions: read-out: RAR Bind. Ki (nM) Y
T5 sequence (P13631 1-454): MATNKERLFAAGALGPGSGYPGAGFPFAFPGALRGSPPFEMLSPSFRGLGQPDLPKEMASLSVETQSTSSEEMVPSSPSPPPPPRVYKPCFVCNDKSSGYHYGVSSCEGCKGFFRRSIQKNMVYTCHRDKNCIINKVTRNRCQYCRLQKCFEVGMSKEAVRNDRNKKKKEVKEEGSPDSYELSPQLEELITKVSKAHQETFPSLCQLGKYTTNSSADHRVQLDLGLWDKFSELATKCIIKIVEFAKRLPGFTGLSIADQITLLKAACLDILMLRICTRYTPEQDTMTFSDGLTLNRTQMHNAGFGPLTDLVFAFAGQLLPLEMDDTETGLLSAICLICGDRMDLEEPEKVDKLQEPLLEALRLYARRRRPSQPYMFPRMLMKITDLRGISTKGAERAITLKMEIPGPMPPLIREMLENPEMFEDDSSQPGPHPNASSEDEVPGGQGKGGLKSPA
From the text: as §1, §2

CCN(c1ccc(C(=O)O)cc1)c1cc2c(cc1C)C(C)(C)CC=C2C [Compound 23, 4-[Ethyl(3,5,5,8-tetramethyl-5,6-dihydronaphthalen-2-yl)amino]benzoic acid]
Ki (RARβ): 16000 nM | EC50 (RXRγ): 41 nM | % efficacy, RXR Trans. Y (RXRγ): (119) % | EC50 (RXRα [1]): 21 nM | Emax (RXRα [1]): 101% | Ki (RXRβ [2]): 309 nM | EC50 (RXRβ [3]): 149 nM | % efficacy, RXR Trans. β (RXRβ [3]): (101) % | Ki (RXRα [4]): 8 nM

CCC1=CCC(C)(C)c2cc(C)c(N(CC)c3ccc(C(=O)O)cc3)cc21 [Compound 24, 4-[Ethyl(8-ethyl-3,5,5-trimethyl-5,6-dihydronaphthalen-2-yl)amino]benzoic acid]
Ki (RARγ): 13000 nM | Ki (RARβ): 9100 nM | EC50 (RXRγ): 2 nM | % efficacy, RXR Trans. Y (RXRγ): (102) % | EC50 (RXRα [1]): 1 nM | Emax (RXRα [1]): 100% | Ki (RXRβ [2]): 66 nM | EC50 (RXRβ [3]): 10 nM | % efficacy, RXR Trans. β (RXRβ [3]): (96) % | Ki (RXRα [4]): 29 nM

CCN(c1ccc(C(=O)O)cc1)c1cc2c(cc1C)C(C)(C)CC=C2C(C)C [Compound 25, 4-[Ethyl(8-isopropyl-3,5,5-trimethyl-5,6-dihydronaphthalen-2-yl)amino]benzoic acid]
Ki (RARγ): 4400 nM | Ki (RARβ): 6400 nM | EC50 (RXRγ): 0.2 nM | % efficacy, RXR Trans. Y (RXRγ): (105) % | EC50 (RXRα [1]): < 0.1 nM | Emax (RXRα [1]): 97% | Ki (RXRβ [2]): 20 nM | EC50 (RXRβ [3]): 0.9 nM | % efficacy, RXR Trans. β (RXRβ [3]): (96) % | Ki (RXRα [4]): 2 nM

CC1=CCC(C)(C)c2cc(N(CC3CC3)c3ccc(C(=O)O)cc3)c(C)cc21 [Compound 47, 4-[Cyclopropylmethyl(3,5,8,8-tetramethyl-7,8-dihydronaphthalen-2-yl)amino]benzoic acid]
Ki (RARγ): > 10000 nM | Ki (RARβ): > 10000 nM | % efficacy, RXR Trans. Y (RXRγ): (70) % | Emax (RXRα [1]): 65% | Ki (RXRβ [2]): > 1000 nM | Ki (RXRα [4]): 2500 nM

Cc1cc2c(cc1N(C)c1ccc(C(=O)O)cc1)C(C)(C)CC=C2C(C)C [Compound 52, 4-[Methyl-(5-isopropyl-3,8,8-trimethyl-7,8-dihydronaphthalen-2-yl)amino]benzoic acid]
Ki (RARγ): > 10000 nM | Ki (RARβ): > 10000 nM | % efficacy, RXR Trans. Y (RXRγ): (855) % | Emax (RXRα [1]): 75% | Ki (RXRβ [2]): 2700 nM | EC50 (RXRβ [3]): > 1000 nM | % efficacy, RXR Trans. β (RXRβ [3]): (25) % | Ki (RXRα [4]): 1700 nM

CCN(c1ccc(C(=O)O)cc1)c1cc2c(cc1C)C(C(C)C)=CCC2(C)C [Compound 53, 4-[Ethyl-(5-isopropyl-3,8,8-trimethyl-7,8-dihydronaphthalen-2-yl)amino]benzoic acid]
Ki (RARγ): > 10000 nM | Ki (RARβ): > 10000 nM | % efficacy, RXR Trans. Y (RXRγ): (75) % | Emax (RXRα [1]): 65% | Ki (RXRβ [2]): > 1000 nM | EC50 (RXRβ [3]): > 1000 nM | % efficacy, RXR Trans. β (RXRβ [3]): (20) % | Ki (RXRα [4]): 1200 nM

CCC1=CCC(C)(C)c2cc(N(CC)c3ccc(C(=O)O)cc3)c(C)cc21 [Compound 59, 4-[Ethyl(5-ethyl-3,8,8-trimethyl-7,8-dihydronaphthalen-2-yl)amino]benzoic acid]
Ki (RARγ): > 10000 nM | Ki (RARβ): > 10000 nM | % efficacy, RXR Trans. Y (RXRγ): (100) % | Emax (RXRα [1]): 100% | % efficacy, RXR Trans. β (RXRβ [3]): (100) % | Ki (RXRα [4]): 282 nM

CCCCCCOc1cc2c(cc1N(CC)c1ccc(C(=O)O)cc1)C(C)=CCC2(C)C [Compound 142, 4-[Ethyl-(3-n-hexyloxy-5,5,8-trimethyl-5,6-dihydronaphthalen-2-yl)amino]benzoic Acid]
Ki (RARγ): > 1000 nM | Ki (RARβ): 1000 nM | Ki (RXRβ [2]): 111 nM | Ki (RXRα [4]): 190 nM

CCCCCCCOc1cc2c(cc1N(CC)c1ccc(C(=O)O)cc1)C(C)=CCC2(C)C [Compound 143, 4[Ethyl-(3-n-heptyloxy-5,5,8-trimethyl-5,6-dihydronaphthalen-2-yl)amino]benzoic acid]
Ki (RARγ): 8400 nM | Ki (RARβ): 1700 nM | Ki (RXRβ [2]): 449 nM | Ki (RXRα [4]): 175 nM

CCN(c1ccc(C(=O)O)cc1)c1cc2c(cc1OCc1ccccc1)C(C)(C)CC=C2C [Compound 144, 4-[(3-Benzyloxy-5,5,8-trimethyl-5,6-dihydronaphthalen-2-yl)ethylamino]benzoic acid]
Ki (RARγ): 8100 nM | Ki (RARβ): 2700 nM | Ki (RXRβ [2]): 224 nM | Ki (RXRα [4]): 77 nM

CCCCCCOc1cc2c(cc1N(CCC)c1ccc(C(=O)O)cc1)C(C)=CCC2(C)C [Compound 145, 4-[(3-n-Hexyloxy-5,5,8-trimethyl-5,6-dihydronaphthalen-2-yl)-n-propylamino]benzoic acid]
Ki (RARγ): 6000 nM | Ki (RARβ): 771 nM | EC50 (RXRγ): > 1000 nM | % efficacy, RXR Trans. Y (RXRγ): (10) % | Ki (RXRβ [2]): 475 nM | Ki (RXRα [4]): 229 nM

CCCCCCCOc1cc2c(cc1N(CCC)c1ccc(C(=O)O)cc1)C(C)=CCC2(C)C [Compound 146, 4-[(3-n-Heptyloxy-5 5,8-trimethyl-5,6-dihydronaphthalen-2-yl)-n-propylamino]benzoic acid]
Ki (RARγ): 2800 nM | Ki (RARβ): 576 nM | Ki (RXRβ [2]): 429 nM | Ki (RXRα [4]): 206 nM

CCCN(c1ccc(C(=O)O)cc1)c1cc2c(cc1OCc1ccccc1)C(C)(C)CC=C2C [Compound 147, 4-[(3-Benzyloxy-5 5,8-trimethyl-5,6-dihydronaphthalen-2-yl)-n-propylamino]benzoic acid]
Ki (RARγ): 15000 nM | Ki (RARβ): 4800 nM | EC50 (RXRγ): 280 nM | % efficacy, RXR Trans. Y (RXRγ): (13) % | Ki (RXRβ [2]): 501 nM | Ki (RXRα [4]): 241 nM

CCCCCCOc1cc2c(cc1N(CC)c1ccc(C(=O)O)cc1)C(C(C)C)=CCC2(C)C [Compound 153, 4-[Ethyl-(3-n-hexyloxy-8-isopropyl-5,5-dimethyl-5,6-dihydronaphthalen-2-yl)amino]benzoic acid]
Ki (RARγ): 8900 nM | Ki (RARβ): 4800 nM | Ki (RXRβ [2]): 106 nM | Ki (RXRα [4]): 22 nM

CCN(c1ccc2c(c1)C(C(C)(C)C)=CCC2(C)C)c1ccc(C(=O)O)cn1 [Compound 173, 6-[(8-t-Butyl-5,5-dimethyl-5,6-dihydro-naphthalen-2-yl)-ethyl-amino]-nicotinic acid]
EC50 (RXRγ): 2 nM | % efficacy, RXR Trans. Y (RXRγ): (125) % | EC50 (RXRα [1]): 1 nM | Emax (RXRα [1]): 120% | EC50 (RXRβ [3]): 9 nM | % efficacy, RXR Trans. β (RXRβ [3]): (132) %
